Reference: US20260014130A1, “FORMULATIONS OF CAPSID INHIBITOR” (Gilead Sciences, Inc., priority 2024, published 2026)

How the values were obtained:
[1] = test system: HIV-1; assay: In vitro protein binding-adjusted 95% effective concentration (paEC95) and inhibitory quotient; assay type: cell-based
[2] = test system: HIV; details: twice-yearly SC 927 mg (two 1.5 mL injections of 309 mg/mL), oral loading 600 mg days 1 and 2; cited from earlier work
[3] = cited from earlier work
[4] = in vivo, sc; cited from earlier work

Q: With `CC(C)(C#Cc1ccc(-c2ccc(Cl)c3c(NS(C)(=O)=O)nn(CC(F)(F)F)c23)c([C@H](Cc2cc(F)cc(F)c2)NC(=O)Cn2nc(C(F)(F)F)c3c2C(F)(F)[C@@H]2C[C@H]32)n1)S(C)(=O)=O` [lenacapavir] as the compound, how does the “in vitro paEC95 (protein binding-adjusted 95% effective concentration)” value [1] read?
A: The value was 3.87 ng/mL.

Q: And the “inhibitory quotient-4 (IQ4; 4-fold in-vitro protein binding-adjusted 95% effective concentration)” value ([1]; plasma concentration threshold)?
A: Its value is 15.5 ng/mL.

Q: What about the “efficacy in cisgender men and gender-diverse people” value [2] of the same compound?
A: The value was 99.9%.

Q: What about the “efficacy in cisgender women” value [2] of the same compound?
A: Its value is 100%.

Q: What about the “systemic lenacapavir exposures relative to those achieved with the intramuscular formulations” value ([3]; observed previously, well tolerated) of the same compound?
A: The value was “approximately 3 fold”.

Q: What about the “mean Cmax” value ([3]; supratherapeutic total dose of 9600 mg of oral lenacapavir) of the same compound?
A: The value was 1070.4 ng/mL.

Q: And the “highest observed mean concentration” value [4]?
A: The value was 72.1 ng/mL.
